Among the data in US7601686B2, “Hepatitis C virus inhibitors” (Bristol-Myers Squibb Company, priority 2005, dated 2009) are IC50 and EC50 values, retold here.

Where two headings read alike, the source gives them in different places.

In assay [1] the target is T1, HCV NS3/4A protease complex, BMS strain (UniProt P27958, species not given/STRAIN_BMS).
T1 construct: DNA encoding the recombinant HCV NS3/4A protease complex (amino acids 1027 to 1711) for these strains [H77 and J4L6S]; fused on or other part: For the H77 and J4L6S constructs, a three-lysine solubilising tail at the NS4A C-terminus and a Ni-NTA-purifiable tag from pET21b
T1 sequence (P27958 1027-1657, stated change not applied, one chain of several): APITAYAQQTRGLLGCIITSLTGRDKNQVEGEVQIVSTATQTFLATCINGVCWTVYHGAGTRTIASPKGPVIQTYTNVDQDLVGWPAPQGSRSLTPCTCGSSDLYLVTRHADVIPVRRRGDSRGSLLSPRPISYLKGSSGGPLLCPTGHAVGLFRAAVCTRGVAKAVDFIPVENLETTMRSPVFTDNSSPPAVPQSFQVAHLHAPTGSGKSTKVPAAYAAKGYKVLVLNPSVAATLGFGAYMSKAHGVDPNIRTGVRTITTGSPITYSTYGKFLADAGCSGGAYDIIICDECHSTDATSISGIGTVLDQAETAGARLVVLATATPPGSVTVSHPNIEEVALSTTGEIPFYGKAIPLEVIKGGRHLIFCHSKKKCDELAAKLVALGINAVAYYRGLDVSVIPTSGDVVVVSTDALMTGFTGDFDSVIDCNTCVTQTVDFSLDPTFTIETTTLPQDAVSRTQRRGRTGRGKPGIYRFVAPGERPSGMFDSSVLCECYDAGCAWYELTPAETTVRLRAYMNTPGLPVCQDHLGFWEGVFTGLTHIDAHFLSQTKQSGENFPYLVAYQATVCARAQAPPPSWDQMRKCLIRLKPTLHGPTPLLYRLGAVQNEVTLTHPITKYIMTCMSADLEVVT
The assay is described as follows: FRET peptide assay to monitor HCV NS3/4A proteolytic activity (BMS strain). It is filed as biochemical, Hepatitis C virus (genotype 1a). The text has this: Generation of Recombinant HCV NS3/4A Protease Complex
HCV NS3 protease complexes, derived from the BMS strain, H77 strain or J4L6S strain, were generated, as described below. These purified recombinant proteins were generated for use in a homogeneous assay (see below) to provide an indication of how effective compounds of the present disclosure would be in inhibiting HCV NS3 proteolytic activity.
Serum from an HCV-infected patient was obtained from Dr. T. Wright, San Francisco Hospital. An engineered full-length cDNA (compliment deoxyribonucleic acid) template of the HCV genome (BMS strain) was constructed from DNA fragments obtained by reverse transcription-PCR (RT-PCR) of serum RNA (ribonucleic acid) and using primers selected on the basis of homology between other genotype 1a strains. From the determination of the entire genome sequence, a genotype 1a was assigned to the HCV isolate according to the classification of Simmonds et al. (See P Simmonds, K A Rose, S Graham, S W Chan, F McOmish, B C Dow, E A Follett, P L Yap and H Marsden, J. Clin. Microbiol., 31(6), 1493-1503 (1993)). […] The infectious clones, H77 (1a genotype) and J4L6S (1b genotype) were obtained from R. Purcell (NIH) and the sequences are published in Genbank (AAB67036, see Yanagi, M., Purcell, R. H., Emerson, S. U. and Bukh, J. Proc. Natl. Acad. Sci. U.S.A. 94(16), 8738-8743 (1997); AF054247, see Yanagi, M., St Claire, M., Shapiro, M., Emerson, S. U., Purcell, R. H. and Bukh, J, Virology 244 (1), 161-172. (1998)).
The H77 and J4L6S strains were used for production of recombinant NS3/4A protease complexes. DNA encoding the recombinant HCV NS3/4A protease complex (amino acids 1027 to 1711) for these strains were manipulated as described by P. Gallinari et al. (see Gallinari P, Paolini C, Brennan D, Nardi C, Steinkuhler C, De Francesco R. Biochemistry. 38(17):5620-32, (1999)). Briefly, a three-lysine solubilizing tail was added at the 3′-end of the NS4A coding region. The cysteine in the P1 position of the NS4A-NS4B cleavage site (amino acid 1711) was changed to a glycine to avoid the proteolytic cleavage of the lysine tag. Furthermore, a cysteine to serine mutation was introduced by PCR at amino acid position 1454 to prevent the autolytic cleavage in the NS3 helicase domain. The variant DNA fragment was cloned in the pET21b bacterial expression vector (Novagen) and the NS3/4A complex was expressed in Escherichia coli strain BL21 (DE3) (Invitrogen) following the protocol described by P. Gallinari et al. (see Gallinari P, Brennan D, Nardi C, Brunetti M, Tomei L, Steinkuhler C, De Francesco R., J. Virol. 72(8):6758-69 (1998)) with modifications. Briefly, the NS3/4A protease complex expression was induced with 0.5 millimolar (mM) Isopropyl β-D-1-thiogalactopyranoside (IPTG) for 22 hours (h) at 20° C. A typical fermentation (1 Liter (L)) yielded approximately 10 grams (g) of wet cell paste. The cells were resuspended in lysis buffer (10 mL/g) consisting of 25 mM N-(2-Hydroxyethyl)piperazine-N′-(2-Ethane Sulfonic acid) (HEPES), pH 7.5, 20% glycerol, 500 mM Sodium Chloride (NaCl), 0.5% Triton X-100, 1 microgram/milliliter (“μg/mL”) lysozyme, 5 mM Magnesium Chloride (MgCl2), 1 μg/mL DnaseI, 5 mM β-Mercaptoethanol (βME), Protease inhibitor—Ethylenediamine Tetraacetic acid (EDTA) free (Roche), homogenized and incubated for 20 minutes (min) at 4° C. The homogenate was sonicated and clarified by ultra-centrifugation at 235000 g for 1 h at 4° C. Imidazole was added to the supernatant to a final concentration of 15 mM and the pH adjusted to 8.0. The crude protein extract was loaded on a Nickel—Nitrilotriacetic acid (Ni-NTA) column pre-equilibrated with buffer B (25 mM HEPES, pH 8.0, 20% glycerol, 500 mM NaCl, 0.5% Triton X-100, 15 mM imidazole, 5 mM βME). The sample was loaded at a flow rate of 1 mL/min. The column was washed with 15 column volumes of buffer C (same as buffer B except with 0.2% Triton X-100). […]

For assay [2], the system named is HCV replicon in HUH-7 cells. The assay is described as follows: HCV replicon FRET assay. It counts as cell-based, Hepatitis C virus (strain 1b). The conditions noted are these: Hepatitis C virus; HCV replicon cell assay, HUH-7; read-out: EC50 Range. The text has this: Generation of HCV Replicon
An HCV replicon whole cell system was established as described by Lohmann V, Korner F, Koch J, Herian U, Theilmann L, Bartenschlager R., Science 285(5424):110-3 (1999). This system enabled us to evaluate the effects of our HCV Protease compounds on HCV RNA replication. Briefly, using the HCV strain 1b sequence described in the Lohmann paper (Assession number:AJ238799), an HCV cDNA was synthesized by Operon Technologies, Inc. (Alameda, Calif.), and the full-length replicon was then assembled in plasmid pGem9zf(+) (Promega, Madison, Wis.) using standard molecular biology techniques. The replicon consists of (i) the HCV 5′ UTR fused to the first 12 amino acids of the capsid protein, (ii) the neomycin phosphotransferase gene (neo), (iii) the IRES from encephalomyocarditis virus (EMCV), and (iv) HCV NS3 to NS5B genes and the HCV 3′ UTR. Plasmid DNAs were linearized with ScaI and RNA transcripts were synthesized in vitro using the T7 MegaScript transcription kit (Ambion, Austin, Tex.) according to manufacturer's directions. In vitro transcripts of the cDNA were transfected into the human hepatoma cell line, HUH-7. […] Resulting cell lines were characterized for positive and negative strand RNA production and protein production over time.
The HCV replicon FRET assay was developed to monitor the inhibitory effects of compounds described in the disclosure on HCV viral replication. HUH-7 cells, constitutively expressing the HCV replicon, were grown in Dulbecco's Modified Eagle Media (DMEM) (Gibco-BRL) containing 10% Fetal calf serum (FCS) (Sigma) and 1 mg/mL G418 (Gibco-BRL). Cells were seeded the night before (1.5×10^4 cells/well) in 96-well tissue-culture sterile plates. Compound and no compound controls were prepared in DMEM containing 4% FCS, 1:100 Penicillin/Streptomysin (Gibco-BRL), 1:100 L-glutamine and 5% DMSO in the dilution plate (0.5% DMSO final concentration in the assay). Compound/DMSO mixes were added to the cells and incubated for 4 days at 37° C. After 4 days, cells were first assessed for cytotoxicity using alamar Blue (Trek Diagnotstic Systems) for a CC50 reading. The toxicity of compound (CC50) was determined by adding 1/10th volume of alamar Blue to the media incubating the cells. After 4 h, the fluorescence signal from each well was read, with an excitation wavelength at 530 nm and an emission wavelength of 580 nm, using the Cytofluor Series 4000 (Perspective Biosystems). Plates were then rinsed thoroughly with Phosphate-Buffered Saline (PBS) (3 times 150 μl).

Setting [3] is: NS3/4A BMS strain, enzyme assay; read-out: IC 50 Range.
The mark [4] stands for this setting: read-out: IC 50 Range; NS3/4A BMS strain, enzyme assay.

By EC50 is commonly meant the concentration needed to bring the measured effect to its halfway point. `C=CC1CC1(NC(=O)[C@@H]1C[C@@H](NC(=O)c2cnc3c(c(C)nn3C)c2Cl)CN1C(=O)[C@@H](NC(=O)CC1CC1)C(C)(C)C)C(=O)NS(=O)(=O)C1CC1` (stereo partly drawn) [Compound 22]: in assay [1] (setting [3]), the IC50 was below 150 nM. Moreover, the EC50 in assay [2] was above 15 µM.

For `C=CC1CC1(NC(=O)[C@@H]1C[C@@H](NC(=O)Nc2cccc3ccccc23)CN1C(=O)[C@@H](NC(=O)OC(C)(C)C)C(C)(C)C)C(=O)NS(=O)(=O)C1CC1` (stereo partly drawn) [Compound 43], the IC50 in assay [1] (setting [4]) is below 150 nM. Further, the EC50 in assay [2] is above 15 µM.

In the case of `C=CC1CC1(NC(=O)[C@@H]1C[C@@H](NC(=O)c2ccnc3ccccc23)CN1C(=O)[C@@H](NC(=O)CC1CC1)C(C)(C)C)C(=O)NS(=O)(=O)C1CC1` (stereo partly drawn) [Compound 10], the IC50 in assay [1] (setting [3]) lay within 150 to 15000 nM. Also, the EC50 in assay [2] was above 15 µM.

On to `C=CC1CC1(NC(=O)[C@@H]1C[C@@H](NC(=O)c2cccc3c2OCC3)CN1C(=O)[C@@H](NC(=O)CC1CC1)C(C)(C)C)C(=O)NS(=O)(=O)C1CC1` (stereo partly drawn) [Compound 30], for which the IC50 in assay [1] (setting [3]) is 150 to 15000 nM. Besides, the EC50 in assay [2] is above 15 µM.

For the compound `C=CC1CC1(NC(=O)[C@@H]1C[C@@H](NC(=O)OCC2c3ccccc3-c3ccccc32)CN1C(=O)[C@@H](NC(=O)CC1CC1)C(C)(C)C)C(=O)NS(=O)(=O)C1CC1` (stereo partly drawn) [Compound 7], in assay [1] (setting [3]), the IC50 lay within 150 to 15000 nM. Further, the EC50 in assay [2] is above 15 µM.

Consider `C=CC1CC1(NC(=O)[C@@H]1C[C@@H](NC(=O)c2ccsc2)CN1C(=O)[C@@H](NC(=O)CC1CC1)C(C)(C)C)C(=O)NS(=O)(=O)C1CC1` (stereo partly drawn) [Compound 12], for which the IC50 in assay [1] (setting [3]) lay within 150 to 15000 nM. Moreover, the EC50 in assay [2] is above 15 µM.

Regarding `C=CC1CC1(NC(=O)[C@@H]1C[C@@H](NS(=O)(=O)c2cccc3ccccc23)CN1C(=O)[C@@H](NC(=O)OC(C)(C)C)C(C)(C)C)C(=O)NS(=O)(=O)C1CC1` (stereo partly drawn) [Compound 48], in assay [1] (setting [3]), the IC50 fell in the range of 150 to 15000 nM. In assay [2], the concentration giving a half-maximal response (EC50) is above 15 µM.

With `C=CC1CC1(NC(=O)[C@@H]1C[C@@H](NC(=O)OCC2c3ccccc3-c3ccccc32)CN1C(=O)[C@@H](NC(=O)OC(C)(C)C)C(C)(C)C)C(=O)NS(=O)(=O)C1CC1` (mixture of isomers) [Compound 5, [1-(2-tert-butoxycarbonylamino-3,3-dimethyl-butyryl)-5-(1-cyclopropanesulfonylaminocarbonyl-2-vinyl-cyclopropylcarbamoyl)-pyrrolidin-3-yl]-carbamic acid 9H-fluoren-9-ylmethyl ester], the IC50 in assay [1] (setting [4]) was 150 to 15000 nM. Also, the EC50 in assay [2] is 0.15 to 15 µM.

As to `C=CC1CC1(NC(=O)[C@@H]1C[C@@H](NC(=O)c2cccc3ccccc23)CN1C(=O)[C@@H](NC(=O)CC1CC1)C(C)(C)C)C(=O)NS(=O)(=O)C1CC1` (stereo partly drawn) [Compound 16], the IC50 in assay [1] (setting [3]) is below 150 nM. Moreover, in assay [2], the EC50 was above 15 µM.

Turning to `C=CC1CC1(NC(=O)[C@@H]1C[C@@H](NC(=O)c2c(C)nc3sccn23)CN1C(=O)[C@@H](NC(=O)CC1CC1)C(C)(C)C)C(=O)NS(=O)(=O)C1CC1` (stereo partly drawn) [Compound 20], the IC50 in assay [1] (setting [3]) was below 150 nM. In assay [2], the EC50 was above 15 µM.

With `C=CC1CC1(NC(=O)[C@@H]1C[C@@H](NC(=S)NCc2ccccc2)CN1C(=O)[C@@H](NC(=O)OC(C)(C)C)C(C)(C)C)C(=O)NS(=O)(=O)C1CC1` (stereo partly drawn) [Compound 45], in assay [1] (setting [4]), the IC50 fell in the range of 150 to 15000 nM. In assay [2], the EC50 was above 15 µM.

For `C=CC1CC1(NC(=O)[C@@H]1C[C@@H](NC(=O)c2cc3ccccc3n2C)CN1C(=O)[C@@H](NC(=O)CC1CC1)C(C)(C)C)C(=O)NS(=O)(=O)C1CC1` (stereo partly drawn) [Compound 26], the IC50 in assay [1] (setting [3]) is below 150 nM. The EC50 in assay [2] fell in the range of 0.15 to 15 µM.

Turning to `C=CC1CC1(NC(=O)[C@@H]1C[C@@H](NC(=O)c2c(C)nc3ccccn23)CN1C(=O)[C@@H](NC(=O)CC1CC1)C(C)(C)C)C(=O)NS(=O)(=O)C1CC1` (stereo partly drawn) [Compound 17], the IC50 in assay [1] (setting [3]) is below 150 nM. In assay [2], the EC50 is above 15 µM.

Regarding `C=CC1CC1(NC(=O)[C@@H]1C[C@@H](NC(=O)c2cccc3cccnc23)CN1C(=O)[C@@H](NC(=O)CC1CC1)C(C)(C)C)C(=O)NS(=O)(=O)C1CC1` (stereo partly drawn) [Compound 31], the IC50 in assay [1] (setting [3]) was below 150 nM. The EC50 in assay [2] lay in the range of 0.15 to 15 µM.

On to `C=CC1CC1(NC(=O)[C@@H]1C[C@@H](N2C(=O)c3ccccc3C2=O)CN1C(=O)[C@@H](NC(=O)CC1CC1)C(C)(C)C)C(=O)NS(=O)(=O)C1CC1` (stereo partly drawn) [Compound 58], for which the IC50 in assay [1] (setting [4]) was 150 to 15000 nM. Besides, in assay [2], the EC50 was above 15 µM.

As for `C=CC1CC1(NC(=O)[C@@H]1CC(NC(=O)c2cc(-c3ccccc3)nc3ccccc23)CN1C(=O)[C@@H](NC(=O)OC(C)(C)C)C(C)(C)C)C(=O)NS(=O)(=O)C1CC1` (stereo partly drawn) [Compound 6], the IC50 in assay [1] (setting [3]) is below 150 nM. The EC50 in assay [2] lay in the range of 0.15 to 15 µM.

For the compound `C=CC1CC1(NC(=O)[C@@H]1C[C@@H](NC(=O)c2sc3ccccc3c2Cl)CN1C(=O)[C@@H](NC(=O)CC1CC1)C(C)(C)C)C(=O)NS(=O)(=O)C1CC1` (stereo partly drawn) [Compound 29], the IC50 in assay [1] (setting [3]) is below 150 nM. In addition, the EC50 in assay [2] is 0.15 to 15 µM.

Regarding `C=CC1CC1(NC(=O)[C@@H]1C[C@@H](NC(=O)c2cc3ccccc3s2)CN1C(=O)[C@@H](NC(=O)CC1CC1)C(C)(C)C)C(=O)NS(=O)(=O)C1CC1` (stereo partly drawn) [Compound 32], in assay [1] (setting [3]), the IC50 is below 150 nM. The EC50 in assay [2] fell in the range of 0.15 to 15 µM.
